Results as given in patent EP4624457A1, “I[…] DERIVATIVES, I[…] NEURODEGENERATIVE DISEASES” (Centre National de la Recherche Scientifique, priority 2024, dated 2025).
Values joined by “and” are separate entries in the source; they are usually repeats but may differ in a detail not shown here. Identical values can stand only once.

Test system: A2780 ovarian carcinoma cells
Assay: Phosphatidylserine exposure assay (FITC-Annexin V / propidium iodide, flow cytometry)
Type: cell-based
Experimental: • Figure 1 represents the chemical structure of ingrilimine according to compound (Illa) formula. • Figure 2 represents the cytotoxic activity of ingrilimine. A2780 ovarian and HT29 colorectal carcinoma cells were grown in RPMI 1640 supplemented with 10% fetal calf serum (FCS) and 1% glutamine. U87-MG glioblastoma cells were grown in Dulbecco minimal essential medium containing 4.5 g/L glucose, 10% FCS and 1% glutamine at 37 °C in a humidified atmosphere containing 5% CO2. For IC50 determination, the cells were seeded in 96-well plates (3 × 10^3 cells/well) containing 90 µL of growth medium. After 24 h of culture, the cells were treated with ingrilimine at 10 different final concentrations. Cell viability was determined by luminescence after 72 h incubation. (a) Effect of ingrilimine on A2780 ovarian carcinoma cells. (b) Effect of ingrilimine on U87-MG glioblastoma cells. (c) Effect of ingrilimine on U87-MG glioblastoma cells • Figure 3a-3f represent the mitochondrial dysfunction provoked by ingrilimine. […] Sector Q normal cells that accumulated the JC-1 dye (fluorescence emission 590 nm). […] (a) Non-treated cells incubated with the carrier (DMSO) for 24 h. (b) HCT116 cells incubated with 10 nN ingrilimine for 24 h. (c) HCT116 cells incubated with 250 nM ingrilimine for 24 h. (d) Non-treated cells incubated with the carrier (DMSO) for 48 h. (e) HCT116 cells incubated with 10 nN ingrilimine for 48 h. (f) HCT116 cells incubated with 250 nM ingrilimine for 48. Changes in fluorescence emission were recorded by flow cytometry using the JC-1 mithocondrial membrane potential-dependent fluorescent dye. NT = non-treated cells; IngX = ingrilimine. • Figure 4a-4f represents phosphatidylserine exposure provoked by ingrilimine. […] Quadrants D1 and D2 with dead or necrotic cells, quadrant D3 with normal cells and quadrant D4 with apoptotic cells following phosphatidylserine exposure. (a) Non-treated A2780 cells incubated with the carrier (DMSO) for 24h. (b) A2780 cells incubated with 10 nM ingrilimine for 24 h. (c) A2780 cells incubated with 250 nM ingrilimine for 24 h. (d) Non-treated A2780 cells incubated with the carrier (DMSO) for 48 h. (e) A2780 cells incubated with 10 nM ingrilimine for 48 h. (f) A2780 cells incubated with 250 nM ingrilimine for 48. […] exposure in A2780 cell was quantified by flow cytometry using FITC-Annexin V. Dead or necrotic cells were detected using the vital dye propridium iodide. NT = non-treated cells; IngX = ingrilimine. • Figure 5 represents the antagonistic activity of ingrilimine (named "IngX" in the figure) and portimine (named "Port A" in the figure) against nicotinic acetylcholine receptors recorded by two-electrodes voltage clamp electrophysiology on Xenopus laevis oocytes. Clamped Xenopus laevis oocytes having incorporated the muscle (α1)2βγδ nAChR subtype from Torpedo marmorata (filled squares), or expressing the neuronal α3β2 nAChR subtype from rat (filled triangles), or expressing the human neuronal α7 nAChR subtype (filled circles) were exposed to portimine (100 nM - 1 mM) for 45 seconds. […] A Xenopus laevis oocyte expressing the human α7 nAChR subtype was exposed to 100 µM acetylcholine triggering the immediate opening of the receptor's channel (black bold line) followed by the very-fast closure of the channel ([…]) that became insensitive to acetylcholine during the rest of the 5 seconds exposure (desensitization). When a Xenopus laevis oocyte expressing the human α7 nAChR subtype was exposed first to 10 nM ingrilimine for 45 seconds and then to a mixture (Mix) containing 10 nM ingrilimine and 100 µM acetylcholine, the receptor's channel was closed denoting a strong antagonistic activity of the tested toxin against the α7 nAChR subtype (dotted line). […]

**Q.** Which results are given for `C=CC1=C[C@@H]2C[C@@H](O)[C@@H](O)/C(C)=C/C/C(C)=C/CCC3=NCCC[C@]32CC1` [Ingrilimine, ingrilimine]?
**A.** Annexin V+/IP (10 nM, 24 h): 1.1%; Annexin V+/IP (10 nM, 48 h): 0.8%; Annexin V+/IP (50 nM, 24 h): 3.4%; Annexin V+/IP (50 nM, 48 h): 10%; Annexin V+/IP (100 nM, 24 h): 9.8%; Annexin V+/IP (100 nM, 48 h): 20.4%; Annexin V+/IP (250 nM, 24 h): 13.1%; Annexin V+/IP (250 nM, 24 h, listed as ingrilimine): -13%; percentage of propidium iodide positive and annexin V positive (250 nM, 24 h, quadrant D2, late stage apoptotic, dead or necrotic cells): 3.8%; Annexin V+/IP (250 nM, 48 h): 31.3%; percentage of propidium iodide positive and annexin V positive (250 nM, 48 h, quadrant D2): 17%; Annexin V+/IP (500 nM, 24 h): 27.1%; viability at 0.25 µM (Homo sapiens, A2780, 48 h, read-out: viable cells): 45%

**Q.** Which “Annexin V+/IP” value (1 nM, 24 h, early apoptotic cells (annexin V positive, propidium iodide negative)) does the source give for `C=CC1=C[C@@H]2[C@@H]3O[C@]4(CC[C@H](O4)[C@@H](C)C[C@@H](O)C3=O)C[C@H](O)C3=NCC[C@@]32CC1` [Portimine-A] here?
**A.** 3.4%

**Q.** What about the “Annexin V+/IP” value (1 nM, 48 h) of the same molecule?
**A.** 1.7%

**Q.** And the “Annexin V+/IP” value (5 nM, 24 h)?
**A.** 6.4%

**Q.** And the “Annexin V+/IP” value (5 nM, 48 h)?
**A.** 18.4%

**Q.** And the “Annexin V+/IP” value (10 nM, 24 h)?
**A.** 13.1%

**Q.** What about the “Annexin V+/IP” value (10 nM, 48 h) of the same molecule?
**A.** 24.1%

**Q.** What about the “Annexin V+/IP” value (20 nM, 24 h) of the same molecule?
**A.** 13%

**Q.** What about the “percentage of late-stage apoptotic cells and or necrotic cells” value (20 nM, 24 h) of the same molecule?
**A.** 4.3%

**Q.** And the “percentage of late-stage apoptotic cells and or necrotic cells” value (20 nM, 48 h)?
**A.** 15%

**Q.** And the “Annexin V+/IP” value (20 nM, 48 h, listed as Portimine)?
**A.** 39% and 39.3%

**Q.** And the “Annexin V+/IP” value (50 nM, 24 h)?
**A.** 22.8%

**Q.** What about the viable cells (50 nM, 48 h treatment, quadrant D3) of the same molecule?
**A.** 40%
